Measured values from US9670226B2, “Sesquiterpenoids” (National Institute of Biological Sciences, Beijing, priority 2014, dated 2017).

Experiments:
phosphorylation of IκBα = test: LPS induced NF-κB activation: IκBα phosphorylation in RAW264.7 cells (western blot); type: cell-based, mouse; details: Raw 264.7 cells pre-incubated with 4 μM for 2 h, 20 ng/ml LPS, 20 minutes, western blot
IKKβ [1] = molecular target: T1, IKKβ (Homo sapiens, UniProt O14920); test: IKKβ kinase inhibition; type: biochemical; details: table of derivatives; read-out: IKKβ (IC50)
T1 sequence (O14920 1-756): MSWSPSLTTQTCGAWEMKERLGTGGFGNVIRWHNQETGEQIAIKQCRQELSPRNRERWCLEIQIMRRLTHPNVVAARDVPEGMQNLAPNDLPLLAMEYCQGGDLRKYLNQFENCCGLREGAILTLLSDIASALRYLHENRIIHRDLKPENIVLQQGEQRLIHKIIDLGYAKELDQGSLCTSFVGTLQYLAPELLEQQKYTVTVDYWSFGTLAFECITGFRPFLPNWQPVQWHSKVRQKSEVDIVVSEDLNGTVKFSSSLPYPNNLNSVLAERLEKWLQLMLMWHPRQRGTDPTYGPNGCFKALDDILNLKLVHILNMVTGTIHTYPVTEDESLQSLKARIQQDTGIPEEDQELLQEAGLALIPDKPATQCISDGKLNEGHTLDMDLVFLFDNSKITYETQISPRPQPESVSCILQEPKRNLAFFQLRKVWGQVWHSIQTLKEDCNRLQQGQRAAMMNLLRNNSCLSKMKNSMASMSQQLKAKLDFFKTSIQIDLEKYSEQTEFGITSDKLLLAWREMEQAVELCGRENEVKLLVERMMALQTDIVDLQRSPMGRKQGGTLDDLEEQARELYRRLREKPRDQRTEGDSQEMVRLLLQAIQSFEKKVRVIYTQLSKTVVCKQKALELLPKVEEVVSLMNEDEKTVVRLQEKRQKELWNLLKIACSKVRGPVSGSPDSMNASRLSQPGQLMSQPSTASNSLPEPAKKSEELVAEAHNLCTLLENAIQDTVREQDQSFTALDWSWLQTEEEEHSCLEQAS
Excerpt: To further explore how (+)-ainsliadimer A inactivates IKKα/β, we conducted the molecular dynamics (MD) simulations using the first crystal structure of IKKβ^29 to sample the conformational states of IKKβ upon 223 binding. […] We next asked whether 223 could directly affect IKKβ kinase activity.

NF-κB activation = NF-κB activation (SAR analogs and biotin probes)
Excerpt: In order to evaluate which of them is critical for the binding of 223, we individually mutated these nine cysteine residues of IKKβ into alanines.

[2] = system: BGC-823 human gastric adenocarcinoma xenograft; test: BGC-823 xenograft in nude mice; type: in vivo; details: 223 25 mg/kg, qdx8; HCPT 30 mg/kg, q6dx2
Method: Next we further examined anti-tumor effect of 223 in vivo. Nude mice bearing a BGC-823 human gastric adenocarcinoma xenograft were treated with vehicle or 223 (25 mg/kg, qdx8) or 10-hydroxycamptothecin (HCPT), a widely used anti-tumor drug (30 mg/kg, q6dx2).

[3] = molecular target: T2, IKKβ C46 containing peptide (#1, #2; amino acids 41-53) (Homo sapiens, UniProt O14920); test: Peptide binding by MALDI-TOF
T2 construct: encompasses amino acids 41-53 of human IKKβ; made in house; host or cells: chemical peptide synthesis
Method: (§1) This peptide was tested for binding to 223 and probe by using MALDI-TOF (Matrix-Assisted […] Desorption/Ionization Time of Flight). m/z values at 2,047.978 and 2,479.259 were well matched with the calculated weights of #1+223 and #1+Probe, respectively. […] As expected, the peptide #2 containing amino acids 41-53 of human IKKβ interacted with both 223 and probe.

[4] = system: IKKβ C46 containing peptide (#1, #2; amino acids 41-53); test: Peptide binding by MALDI-TOF; parameters: species or system human
Method: as §1

recombinant Flag-IKKα = molecular target: T3, recombinant Flag-IKKα (Homo sapiens, UniProt O15111); test: Binding to purified recombinant protein (SDS-PAGE, streptavidin blot); details: increasing concentrations
T3 construct: made in house; host or cells: 293T cells (transient transfection, anti-Flag purification)
Method: To determine whether 223 directly binds to IKKα and IKKβ, we generated recombinant IKKα and IKKβ proteins for further analysis. 293T cells were transfected with Flag-IKKα or Flag-IKKβ plasmid, and the recombinant Flag-IKKα or Flag-IKKβ was captured by anti-Flag agarose beads and was then eluted off the beads using Flag peptide. The purified Flag-IKKα or Flag-IKKβ was incubated with DMSO or increasing concentrations of Probe, and then the mixtures were resolved by SDS-PAGE, followed by immunoblotting with streptavidin or anti-Flag antibody.

[5] = system: IKKβ C215 containing peptides #3 and #4; test: Peptide binding by MALDI-TOF; parameters: species or system human
[6] = system: peptides 1A, 2A, 1S and 2S (cysteine 46 replaced by alanine or serine); test: Peptide binding by MALDI-TOF; parameters: species or system human
IKKβ [7] = molecular target: T1, IKKβ; test: Pull-down from 293T cell lysates with streptavidin agarose beads; type: binding
Method: (§2) To identify cellular proteins interacting with 223, we performed pull-down experiments using Probe and NC as the positive and negative probe, respectively. 293T cell lysates were incubated with streptavidin agarose beads which were pre-coupled with positive probe or negative probe. The proteins precipitated by streptavidin agarose beads were resolved by SDS-PAGE and stained with silver. […] We further monitored the presences of IKKα and IKKβ in the precipitates by immunoblotting.

IKKα = molecular target: T4, IKKα (Homo sapiens, UniProt O15111); test: as above; type: binding
T4 construct: endogenous in cells; host or cells: 293T
Method: as §2

T3 sequence (O15111 whole entry): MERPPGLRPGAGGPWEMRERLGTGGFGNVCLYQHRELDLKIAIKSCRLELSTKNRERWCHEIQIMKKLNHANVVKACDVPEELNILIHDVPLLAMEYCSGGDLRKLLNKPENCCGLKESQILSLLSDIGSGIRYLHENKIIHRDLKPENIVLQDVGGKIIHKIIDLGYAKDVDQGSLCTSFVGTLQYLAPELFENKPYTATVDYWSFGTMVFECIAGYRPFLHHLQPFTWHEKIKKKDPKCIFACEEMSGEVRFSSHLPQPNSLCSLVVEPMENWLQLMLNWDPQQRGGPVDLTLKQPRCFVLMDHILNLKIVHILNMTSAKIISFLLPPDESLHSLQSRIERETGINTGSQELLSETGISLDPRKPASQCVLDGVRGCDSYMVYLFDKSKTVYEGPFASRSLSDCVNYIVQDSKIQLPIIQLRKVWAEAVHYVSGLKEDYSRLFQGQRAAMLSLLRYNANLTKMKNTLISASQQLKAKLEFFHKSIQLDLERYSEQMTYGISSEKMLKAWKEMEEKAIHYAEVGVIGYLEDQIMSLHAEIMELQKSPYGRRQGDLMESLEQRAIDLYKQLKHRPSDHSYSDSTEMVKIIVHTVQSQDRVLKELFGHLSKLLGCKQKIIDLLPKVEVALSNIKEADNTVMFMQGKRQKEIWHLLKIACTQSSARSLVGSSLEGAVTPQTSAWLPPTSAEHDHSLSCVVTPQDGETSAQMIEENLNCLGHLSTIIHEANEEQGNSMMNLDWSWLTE
T4 sequence (O15111 whole entry): as above

C=C1C(=O)O[C@@H]2[C@@H]3[C@@H](C[C@@]4(O)[C@]3(O)CC[C@]43C(=O)C[C@H]4C(=C)CC[C@H]5C(=C)C(=O)O[C@@H]5[C@H]43)C(=C)CC[C@@H]12 [Compound 1]
phosphorylation of IκBα (phosphorylation of IκBα): effectively blocked
IC50 (IKKβ [1]): 75.7 nM

C=C1C(=O)O[C@@H]2[C@@H]3[C@@H](C[C@@]45OC(C)(C)O[C@@]34CC[C@]53C(=O)C[C@H]4C(=C)CC[C@H]5C(=C)C(=O)O[C@@H]5[C@H]43)C(=C)CC[C@@H]12 [Compound 2]
phosphorylation of IκBα (phosphorylation of IκBα): effectively blocked
IC50 (IKKβ [1]): 56 nM

C=C1CC[C@H]2C(CN(C)C)C(=O)O[C@@H]2[C@@H]2[C@H]1C[C@@]13OC(C)(C)O[C@@]21CC[C@]31C(=O)C[C@H]2C(=C)CC[C@H]3C(CN(C)C)C(=O)O[C@@H]3[C@H]21 (stereo partly shown) [Compound 3]
phosphorylation of IκBα (phosphorylation of IκBα): effectively blocked
IC50 (IKKβ [1]): 41.8 nM

C=C1C(=O)O[C@@H]2[C@@H]3[C@@H](C[C@H](O)[C@]34CC[C@]3(O)[C@@H]5[C@H]6OC(=O)C(=C)[C@@H]6CCC(=C)[C@@H]5C[C@]43O)C(=C)CC[C@@H]12 [Compound 224]
biological activity (initial SAR) (NF-κB activation): fully retain the biological activity

C=C1CC[C@@H]2[C@H](OC(=O)[C@H]2C)[C@@H]2[C@H]1C[C@@]1(O)[C@]2(O)CC[C@]12C(=O)C[C@H]1C(=C)CC[C@@H]3[C@H](OC(=O)[C@H]3C)[C@H]12 [Compound 225]
biological activity (initial SAR) (NF-κB activation): inactive

CC[C@@]1(O)C(=O)OCc2c1cc1n(c2=O)Cc2cc3cc(O)ccc3nc2-1 [HCPT, 10-hydroxycamptothecin, reference compound]
side effects and body weight during administration [2]: significant body weight loss

C=C1C(=O)O[C@@H]2[C@@H]3[C@@H](C[C@H](OC(=O)CCOCCOCCOCCNC(=O)CCCC[C@@H]4SC[C@@H]5NC(=O)N[C@@H]54)[C@]34CC[C@]3(O)[C@@H]5[C@H]6OC(=O)C(=C)[C@@H]6CCC(=C)[C@@H]5C[C@]43O)C(=C)CC[C@@H]12 [Probe]
binding to peptide #1 [3]: could bind
interaction with peptide #2 [4]: interacted
interaction with recombinant IKKα (recombinant Flag-IKKα): strong interaction
association with peptides #3 and #4 [5]: no association
binding to peptides 1A, 2A, 1S and 2S [6]: lost the ability to bind
pull-down of IKKβ (immunoblotting) (IKKβ [7]): specifically pulled down
pull-down of IKKα (immunoblotting) (IKKα): specifically pulled down
